Source: patent US8153431B2, “Compositions and methods for making mutations in cell lines and animals” (ABT Holding Company, priority 2001, dated 2012)

Legend:
Jurkat cells = test: Cell survival after ENU treatment (limiting dilution); assay type: cell-based, human; conditions: 2 hours, with 10 uM O-6-BG
Source text: (§1) The ability to identify all genetic mutations that can create a phenotype requires that large numbers of mutations be created in as few cells as possible, and the high efficiency of ENU chemical mutagenesis is suited to this task. We set out to determine the ENU treatment needed to create 50-100 cell libraries in which all genes are mutated at least once (defined as a 1× knockout library) in Jurkat cells. To characterize the mutagenesis we measured both cell survival and the mutation rate in characterizing the optimal ENU treatment (Table I). Survival was determined by limiting dilution, and the mutation rate was estimated in the population of surviving clones based on the frequency of knocking out the single copy HPRT gene (assayed by the survival of such HPRT^− cells upon culture in the presence of 6-thioguanine). As shown in the table below, at an ENU dose of 0.2 mg/ml the mutation rate is 0.02 HPRT^− genes/cell and the 1× library size is therefore ˜50 cells. Creation of libraries of these densely mutagenized cells provides a genetically sensitized background in which small increments of further mutagenesis can create phenotypes by knocking out the sole remaining wild type alleles of ENU-mutated genes.
• Jurkat cells were treated with 10 uM O-6-BG (Sigma) at 5×10^5 cells/ml for 16 hours at 37° C. in a humidified incubator with 5% CO2. The pretreated cells were then incubated with desired concentration of ENU (Sigma) in the presence of O-6-BG for 2 hours at 37° C. with constant shaking. At the end of incubation cells were washed with 10-volume 1×PBS three times and resuspended in complete media with 10 uM O-6-BG. 24 hours later O-6-BG was washed off, cells were resuspended in complete media and seeded onto 96-well plate at 20 cells per well or 400-2000 cells per well. Cells were then cultured for 10 days. Viability is determined by the lower density seeding based on number of wells containing growing colonies. To determine mutation frequency, cells seeded at the higher density were used to select for Hprt-loss of function mutants in the presence of 40 uM 6-TG (Sigma). Number of wells containing growing colonies in the presence of 6-TG was scored 7-10 days later. Mutation frequency is calculated as # of 6-TG resistant colony divided by # of viable cells seeded.

single copy HPRT gene = test: Mutation rate by knockout of single copy HPRT gene (6-thioguanine selection) in Jurkat cells; assay type: cell-based, human
Source text: as §1, with “As shown in the table below, at an ENU dose of 0.2 mg/ml the mutation rate is 0.02 HPRT^− genes/cell and the 1× library size is therefore ˜50 cells. Creation of libraries of these densely mutagenized cells provides a genetically sensitized background in which small increments of further mutagenesis can create phenotypes by knocking out the sole remaining wild type alleles of ENU-mutated genes.” left out
• Jurkat cells were treated with 10 uM O-6-BG (Sigma) at 5×10^5 cells/ml for 16 hours at 37° C. in a humidified incubator with 5% CO2. […] Viability is determined by the lower density seeding based on number of wells containing growing colonies. […] Number of wells containing growing colonies in the presence of 6-TG was scored 7-10 days later. Mutation frequency is calculated as # of 6-TG resistant colony divided by # of viable cells seeded.

CCN(N=O)C(N)=O [ENU, N-ethyl-N-nitrosourea]
% survival (Jurkat cells; ENU 0.1 mg/ml): 1.83% | % survival (Jurkat cells; ENU 0.125 mg/ml): 0.93% | % survival (Jurkat cells; ENU 0.15 mg/ml): 1.08% | % survival (Jurkat cells; ENU 0.175 mg/ml): 0.88% | % survival (Jurkat cells; ENU 0.2 mg/ml): 0.29% | % survival (Jurkat cells; ENU 0.25 mg/ml): 0.07% | mutation rate (single copy HPRT gene; ENU dose of 0.2 mg/ml, Jurkat): 0.02 HPRT^− genes/cell | genes in each cell with knockout in one copy (single copy HPRT gene; Jurkat clones after 0.2 mg/ml ENU mutagenesis): 1-3%
